Data published in paper PMC5584250, “Identification of deubiquitinase targets of isothiocyanates using SILAC-assisted quantitative mass spectrometry” (Oncotarget, 2017).

Columns and labels:
UCH37 = biological target: T1, UCH37 (Homo sapiens, UniProt Q9Y5K5); assay: d5/d0-NEM differential cysteine labeling LC-MS/MS on recombinant UCH37/ADRM1; also Ub-Rho110MP hydrolysis inhibition and activity-probe competition; type: binding
T1 construct: gene UCHL5; Human UCH37 (isoform 1) with an N-terminal 6x histidine tag; with ADRM1 (RPN13)
T1 sequence (Q16186 2-407): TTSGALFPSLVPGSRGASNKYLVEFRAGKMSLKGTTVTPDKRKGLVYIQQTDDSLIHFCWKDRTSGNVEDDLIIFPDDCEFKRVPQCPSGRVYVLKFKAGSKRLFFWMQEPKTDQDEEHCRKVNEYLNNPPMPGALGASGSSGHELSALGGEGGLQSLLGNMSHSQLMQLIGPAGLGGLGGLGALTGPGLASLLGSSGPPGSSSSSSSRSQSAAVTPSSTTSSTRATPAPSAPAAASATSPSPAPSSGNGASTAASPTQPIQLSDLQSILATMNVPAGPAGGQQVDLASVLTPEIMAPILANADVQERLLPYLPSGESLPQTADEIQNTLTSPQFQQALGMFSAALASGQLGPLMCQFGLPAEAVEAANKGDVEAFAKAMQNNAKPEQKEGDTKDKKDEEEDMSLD
T1 sequence (Q9Y5K5 whole entry, canonical isoform): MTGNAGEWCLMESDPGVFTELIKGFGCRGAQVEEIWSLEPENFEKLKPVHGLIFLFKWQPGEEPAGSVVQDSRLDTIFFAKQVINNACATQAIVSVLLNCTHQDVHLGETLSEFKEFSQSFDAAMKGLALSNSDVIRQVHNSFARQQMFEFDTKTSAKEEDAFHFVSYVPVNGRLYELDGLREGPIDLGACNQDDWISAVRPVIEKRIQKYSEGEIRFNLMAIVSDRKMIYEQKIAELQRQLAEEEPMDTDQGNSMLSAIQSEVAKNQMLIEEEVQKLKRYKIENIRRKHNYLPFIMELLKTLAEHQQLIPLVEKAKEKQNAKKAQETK

VCPIP1 = biological target: T2, VCPIP1 (Homo sapiens, UniProt Q96JH7); assay: SILAC-MS competitive activity profiling (biotin-Ub-PA/VME) in HeLa lysate, […] PEITC; type: cell-based
T2 sequence (Q96JH7 1-1222): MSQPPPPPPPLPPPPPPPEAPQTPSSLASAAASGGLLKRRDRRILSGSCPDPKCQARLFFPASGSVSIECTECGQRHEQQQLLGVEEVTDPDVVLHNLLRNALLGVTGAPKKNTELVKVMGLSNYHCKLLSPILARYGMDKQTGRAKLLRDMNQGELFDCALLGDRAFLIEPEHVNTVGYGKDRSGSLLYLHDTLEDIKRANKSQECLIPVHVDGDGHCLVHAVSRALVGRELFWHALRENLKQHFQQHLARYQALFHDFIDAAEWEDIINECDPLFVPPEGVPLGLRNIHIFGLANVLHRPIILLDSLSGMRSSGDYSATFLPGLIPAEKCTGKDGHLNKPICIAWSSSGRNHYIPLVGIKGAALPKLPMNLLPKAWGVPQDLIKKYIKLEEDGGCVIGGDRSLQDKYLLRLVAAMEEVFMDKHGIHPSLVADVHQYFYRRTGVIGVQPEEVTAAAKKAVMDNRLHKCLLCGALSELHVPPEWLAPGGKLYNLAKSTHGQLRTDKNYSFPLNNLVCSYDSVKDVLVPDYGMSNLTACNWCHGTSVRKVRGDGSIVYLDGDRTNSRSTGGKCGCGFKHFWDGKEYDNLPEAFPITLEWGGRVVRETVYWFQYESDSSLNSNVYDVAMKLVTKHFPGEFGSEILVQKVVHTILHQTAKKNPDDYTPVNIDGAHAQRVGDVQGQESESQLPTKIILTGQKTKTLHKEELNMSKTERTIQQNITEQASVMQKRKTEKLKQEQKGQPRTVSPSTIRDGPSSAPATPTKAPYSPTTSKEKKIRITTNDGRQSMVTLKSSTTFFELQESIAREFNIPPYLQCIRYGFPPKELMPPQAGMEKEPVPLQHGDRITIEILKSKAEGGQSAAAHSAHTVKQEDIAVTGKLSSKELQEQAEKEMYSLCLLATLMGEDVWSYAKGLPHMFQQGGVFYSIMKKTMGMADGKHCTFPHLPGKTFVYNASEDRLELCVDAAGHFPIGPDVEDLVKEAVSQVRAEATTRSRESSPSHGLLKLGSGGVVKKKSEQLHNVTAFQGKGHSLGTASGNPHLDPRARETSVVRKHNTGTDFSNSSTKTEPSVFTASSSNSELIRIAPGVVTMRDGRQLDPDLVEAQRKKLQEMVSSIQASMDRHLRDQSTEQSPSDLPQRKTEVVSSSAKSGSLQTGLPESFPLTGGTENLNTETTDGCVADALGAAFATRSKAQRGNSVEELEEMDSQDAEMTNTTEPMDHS

USP16 = USP16 (Homo sapiens, UniProt Q9Y5T5); assay: as above; type: cell-based
Chain of USP16 (Q9Y5T5 whole entry): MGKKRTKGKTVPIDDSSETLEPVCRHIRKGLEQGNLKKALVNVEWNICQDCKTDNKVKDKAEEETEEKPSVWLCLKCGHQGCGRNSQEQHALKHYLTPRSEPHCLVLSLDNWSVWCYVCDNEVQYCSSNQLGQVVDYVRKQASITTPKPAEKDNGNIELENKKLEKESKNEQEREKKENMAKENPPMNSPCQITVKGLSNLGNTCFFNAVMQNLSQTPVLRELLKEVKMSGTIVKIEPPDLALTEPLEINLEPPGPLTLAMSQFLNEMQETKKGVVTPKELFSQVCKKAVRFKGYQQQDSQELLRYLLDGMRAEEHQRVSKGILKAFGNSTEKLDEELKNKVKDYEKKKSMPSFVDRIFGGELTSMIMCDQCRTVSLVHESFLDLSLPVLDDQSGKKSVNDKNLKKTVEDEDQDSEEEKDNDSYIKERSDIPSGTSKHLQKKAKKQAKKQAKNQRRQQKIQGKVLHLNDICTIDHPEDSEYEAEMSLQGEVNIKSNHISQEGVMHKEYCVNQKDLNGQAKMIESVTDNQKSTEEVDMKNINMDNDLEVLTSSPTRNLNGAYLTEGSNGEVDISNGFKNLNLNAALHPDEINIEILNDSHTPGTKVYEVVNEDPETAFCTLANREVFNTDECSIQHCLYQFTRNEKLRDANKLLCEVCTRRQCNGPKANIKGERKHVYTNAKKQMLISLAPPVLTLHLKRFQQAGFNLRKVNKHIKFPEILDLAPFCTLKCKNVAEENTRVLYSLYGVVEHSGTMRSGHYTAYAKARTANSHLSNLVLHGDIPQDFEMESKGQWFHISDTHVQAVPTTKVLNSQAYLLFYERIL

USP3 = biological target: T3, USP3 (Homo sapiens, UniProt Q9Y6I4); assay: Biotin-Ub-PA/VME activity-probe labeling with immunoblot after treatment of HEK293T cells; SILAC-MS in HeLa lysate; type: cell-based
T3 sequence (Q9Y6I4 1-520): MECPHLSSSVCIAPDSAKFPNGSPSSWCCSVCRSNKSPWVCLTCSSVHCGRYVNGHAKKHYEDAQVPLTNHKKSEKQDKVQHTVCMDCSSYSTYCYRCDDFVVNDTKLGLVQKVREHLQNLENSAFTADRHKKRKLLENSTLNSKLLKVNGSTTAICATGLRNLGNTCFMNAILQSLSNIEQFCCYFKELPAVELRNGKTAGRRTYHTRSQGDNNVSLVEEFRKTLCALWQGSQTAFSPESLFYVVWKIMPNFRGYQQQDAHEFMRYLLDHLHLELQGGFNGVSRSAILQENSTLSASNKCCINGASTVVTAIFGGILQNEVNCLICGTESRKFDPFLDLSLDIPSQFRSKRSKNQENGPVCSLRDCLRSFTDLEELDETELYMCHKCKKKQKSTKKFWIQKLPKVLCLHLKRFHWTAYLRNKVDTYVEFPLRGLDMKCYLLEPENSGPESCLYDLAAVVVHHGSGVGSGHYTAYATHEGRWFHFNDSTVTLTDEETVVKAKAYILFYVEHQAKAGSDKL

USP1 = biological target: T4, USP1 (Homo sapiens, UniProt O94782); assay: K63-linked di-ubiquitin gel-based hydrolysis assay with purified USP1/UAF1; also probe labeling in cells and SILAC-MS; type: biochemical
T4 construct: recombinant human His6-USP1/UAF1 complex; with UAF1
T4 sequence (O94782 whole entry): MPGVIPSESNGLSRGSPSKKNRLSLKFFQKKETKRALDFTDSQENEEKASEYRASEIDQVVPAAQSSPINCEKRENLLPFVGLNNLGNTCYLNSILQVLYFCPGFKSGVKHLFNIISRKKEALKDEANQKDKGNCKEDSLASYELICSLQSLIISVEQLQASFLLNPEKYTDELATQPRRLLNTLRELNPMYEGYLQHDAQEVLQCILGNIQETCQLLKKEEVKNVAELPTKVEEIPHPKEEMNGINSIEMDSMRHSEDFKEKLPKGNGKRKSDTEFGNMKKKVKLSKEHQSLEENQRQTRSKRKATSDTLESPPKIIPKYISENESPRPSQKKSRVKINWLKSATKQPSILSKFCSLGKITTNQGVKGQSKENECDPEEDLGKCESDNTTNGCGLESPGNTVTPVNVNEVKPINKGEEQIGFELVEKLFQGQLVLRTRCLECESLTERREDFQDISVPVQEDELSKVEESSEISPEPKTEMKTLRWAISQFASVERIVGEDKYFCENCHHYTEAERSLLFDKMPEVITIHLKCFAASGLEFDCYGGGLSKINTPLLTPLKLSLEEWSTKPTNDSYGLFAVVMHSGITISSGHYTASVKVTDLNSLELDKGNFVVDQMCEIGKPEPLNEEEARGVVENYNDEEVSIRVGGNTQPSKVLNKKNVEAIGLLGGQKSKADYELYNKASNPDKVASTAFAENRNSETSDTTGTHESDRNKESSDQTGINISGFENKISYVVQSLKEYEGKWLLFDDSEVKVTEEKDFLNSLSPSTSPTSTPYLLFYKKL
T4 sequence (Q8TAF3 whole entry partner): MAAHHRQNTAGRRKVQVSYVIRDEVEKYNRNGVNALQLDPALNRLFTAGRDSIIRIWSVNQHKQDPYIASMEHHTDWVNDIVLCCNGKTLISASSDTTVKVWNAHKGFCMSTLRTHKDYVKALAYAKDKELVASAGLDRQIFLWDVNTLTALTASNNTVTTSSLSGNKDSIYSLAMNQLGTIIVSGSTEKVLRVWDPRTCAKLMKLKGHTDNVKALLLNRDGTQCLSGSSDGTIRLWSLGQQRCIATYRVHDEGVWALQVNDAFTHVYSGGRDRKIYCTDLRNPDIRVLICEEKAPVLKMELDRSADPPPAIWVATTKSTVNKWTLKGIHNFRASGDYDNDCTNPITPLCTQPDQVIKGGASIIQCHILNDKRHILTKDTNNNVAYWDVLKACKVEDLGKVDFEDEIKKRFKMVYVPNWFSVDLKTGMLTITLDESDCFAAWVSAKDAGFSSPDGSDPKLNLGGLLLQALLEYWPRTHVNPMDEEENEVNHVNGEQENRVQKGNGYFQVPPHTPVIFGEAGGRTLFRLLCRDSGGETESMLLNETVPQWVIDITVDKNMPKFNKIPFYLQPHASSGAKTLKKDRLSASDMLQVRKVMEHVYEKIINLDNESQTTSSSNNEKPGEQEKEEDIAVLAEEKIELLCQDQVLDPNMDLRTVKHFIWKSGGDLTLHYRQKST
Excerpt: K63-linked di-ubiquitin gel-based hydrolysis assay with purified USP1/UAF1; also probe labeling in cells and SILAC-MS on USP1 | hydrolysis of di-Ub by purified USP1 in complex with its activator UAF1 ... Dose dependent inhibition was observed

S=C=NCCc1ccccc1 [PEITC]
d5/d0-NEM differential cysteine labeling LC-MS/MS on recombinant UCH37/ADRM1; al (UCH37): increase in d0-NEM labeling at Cys88, indicating that the active-site cysteine is the site of PEITC modification | SILAC-MS competitive activity profiling (biotin-Ub-PA/VME) in HeLa lysate, 75 μM (VCPIP1): the inhibition of VCPIP1 by PEITC is the first report of inhibition of an OTU domain DUB | SILAC-MS competitive activity profiling (biotin-Ub-PA/VME) in HeLa lysate, 75 μM (USP16): USP1, USP3, USP16, USP48 and VCPIP1 were only identified in the absence of PEITC | Biotin-Ub-PA/VME activity-probe labeling with immunoblot after treatment of HEK2 (USP3): inhibition of USP3 by PEITC in living cells was confirmed by observing the molecular shift upon probe labeling | K63-linked di-ubiquitin gel-based hydrolysis assay with purified USP1/UAF1; also (USP1): hydrolysis of di-Ub by purified USP1 in complex with its activator UAF1 ... Dose dependent inhibition was observed
